Laboratory results from BindingDB's records for doi:10.1016/j.bmcl.2005.01.051 (Merck Research Laboratories, 2005).

Experiment: Inhibition of alphaIIb-beta3 integrin mediated platelet aggregation (PLAGGIN15)

IC50, > 10 µM:
COc1ccc([C@@H](CCC[C@@H](O)CCc2ccc3c(n2)NCCC3)CC(=O)O)cn1 [(3S,7R)-7-Hydroxy-3-(6-methoxy-pyridin-3-yl)-9-(5,6,7,8-tetrahydro-[1,8]naphthyridin-2-yl)-nonanoic acid]
COc1ccc([C@@H](CCC[C@H](O)CCc2ccc3c(n2)NCCC3)CC(=O)O)cn1 [(3S,7S)-7-Hydroxy-3-(6-methoxy-pyridin-3-yl)-9-(5,6,7,8-tetrahydro-[1,8]naphthyridin-2-yl)-nonanoic acid]
COc1ccc([C@@H](CCCC(=O)CCc2ccc3c(n2)NCCC3)CC(=O)O)cn1 [(S)-3-(6-Methoxy-pyridin-3-yl)-7-oxo-9-(5,6,7,8-tetrahydro-[1,8]naphthyridin-2-yl)-nonanoic acid]
